# Measured values reported in patent US20240287089A1, “Preparation and Uses of 7-Azaindenoisoquinolines” (Purdue Research Foundation, priority 0001, published 2024).
# Read-outs that look alike come from different tables or passages of the source.
# Columns and labels:
# [1] = system: RAJI lymphoma cells; assay: MTS cell viability IC50 assay; type: cell-based; conditions: Homo sapiens, Raji, 72 h
# Description: Cytotoxicity Results in Raji Non-Hodgkin's Lymphoma Cells. MTS experiments were then conducted to test the anti-proliferative effects of 7-aza-8,9-methylenedioxyindenoisoquinolines in Raji cells. Cells were incubated at 2-2000 nM of each drug for 72 h, and cell viabilities were quantified using the MTS assay. […] This potency trend generally correlated with the western blot results, in which G106 and G108 […] show weaker Myc downregulation.
# (§1) MTS Cell Viability IC50 Assay. Drug solutions for MTS IC50 assays of suspension cell lines were made from DMSO stocks by serial-dilutions in 1×PBS (10010-031, Gibco). To set up treatments, drug solutions were plated in triplicates to 96-well tissue culture plates, to which cell-containing media was added to a total volume of 100 μL/well. 100%-viability controls were untreated cells. 2000 cells/well were plated for all suspension cell lines except 3000 cells/well for KMS-27 and 10000 cells/well for CHLA-32. Blanks were cell-free media. Drug treatments were maintained for 72 hr at 37° C. with 5% CO2. To quantify cells, CellTiter 96 AQueous MTS Reagent Powder (G1111, Promega) was dissolved and mixed with phenazine methosulfate (PMS, Sigma-Aldrich P9625) according to manufacturer's instructions. MTS/PMS mix ([…]) was added to treatment wells, 100%-viability control wells, and blank wells. Colors were developed at 37° C. with 5% CO2 for 4 h and absorbance at 490 nm was measured by BioTek Synergy 4 system. To obtain %-viability, A490 values were corrected by blank subtraction, normalized to 100%-viability control, and averaged. Average %-viabilities were plotted against drug dosages to obtain dose-response curves. […] For adherent cell lines, the MTS IC50 assays were conducted the same way as for suspension cell lines except for cell plating and drug treatment. For cell plating, 50 μL of 2000 cells were plated in triplicates to a 96-well tissue culture plate. Cells were allowed sufficient time to become adherent. Serial-diluted drug solutions were made the same way as in the MTS IC50 assays. To set up treatments, drug solutions were mixed with media to two-fold of the final concentrations, and 50 μL of such drug-media mix was then added to 50 μL of plated cells.
# [2] = target: 3′-TAMRA-labeled MycG4 DNA; assay: Fluorescence binding assay; conditions: 20° C., 100 mM K+ buffer, pH 7.0; read-out: Apparent Binding Affinity Kd, app
# Description: Binding Affinity to the Myc G-Quadruplex. Binding affinity of eight 7-aza-8,9-methylenedioxyindenoisoquinolines to MycG4 was determined using a fluorescence binding assay with a 3′-TAMRA-labeled MycG4 DNA. Monitoring TAMRA emission upon drug titration afforded binding isotherms, from which apparent binding affinities, Kd,app, were derived.
# Fluorescence-Based Binding Assays. Fluorescence-based binding assays were performed on a Jasco FP-8300 spectrofluorometer equipped with a temperature controller at 20° C. in a quartz cuvette with a 10 mm path length. 3′-TAMRA-labeled MycG4 DNA (Sigma-Aldrich) was diluted to 20 nM using a 75 mM KCl/25 mM potassium phosphate buffer, pH 7.0. […] Fluorescence intensity at 580 nm, the maximum for the free DNA, was plotted against drug:DNA ratio. The apparent binding dissociation constant, Kd,app, was derived for the binding of each compound. Using OriginPro software (OriginLab Corp., United States) the change in fluorescence intensity was fitted to a one-site binding equation,
# where B0 is the initial fluorescence intensity, B is maximum change in fluorescence intensity, R is DNA concentration, and L is drug:DNA ratio.
# [3] = system: TC-71; assay: MTS GI50, Myc-dependent panel; type: cell-based; conditions: TC-71, 72 h
# Description: (§2) Cytotoxicity Results in Myc-dependent Cancer Cell Lines.
# as §1
# [4] = system: CCRF-CRM; assay: MTS GI50, Myc-dependent panel; type: cell-based; conditions: 72 h
# Description: as §2, §1
# [5] = system: RS4;11; assay: MTS GI50, Myc-dependent panel; type: cell-based; conditions: Homo sapiens
# Description: as §2, §1
# [6] = system: HL-60; assay: MTS GI50, Myc-dependent panel; type: cell-based; conditions: Homo sapiens, HL-60, 72 h
# Description: as §2, §1
# [7] = system: Kasumi-1; assay: MTS GI50, Myc-dependent panel; type: cell-based; conditions: Homo sapiens
# Description: as §2, §1
# [8] = system: SK-N-MC; assay: MTS GI50, Myc-dependent panel; type: cell-based; conditions: Homo sapiens, 72 h
# Description: as §2, §1
# [9] = system: AMO-1; assay: MTS GI50, Myc-dependent panel; type: cell-based; conditions: Homo sapiens
# Description: as §2, §1
# [10] = system: MCF-7; assay: MTS GI50, Myc-dependent panel; type: cell-based; conditions: Homo sapiens
# Description: as §2, §1
# [11] = system: RPMI-8226; assay: MTS GI50, Myc-dependent panel; type: cell-based; conditions: Homo sapiens, RPMI-8226, 72 h
# Description: as §2, §1
# [12] = system: ARD; assay: MTS GI50, Myc-dependent panel; type: cell-based; conditions: 72 h
# Description: as §2, §1
# [13] = system: TC-106; assay: MTS GI50, Myc-dependent panel; type: cell-based
# Description: as §2, §1
# [14] = system: MDA-MB-231; assay: MTS GI50, Myc-dependent panel; type: cell-based; conditions: Homo sapiens, MDA-MB-231, 72 h
# Description: as §2, §1
# [15] = system: MOLT-4; assay: MTS GI50, Myc-dependent panel; type: cell-based; conditions: Homo sapiens, MOLT-4, 72 h
# Description: as §2, §1
# [16] = system: TC-32; assay: MTS GI50, Myc-dependent panel; type: cell-based; conditions: Homo sapiens, TC-32, 72 h
# Description: as §2, §1
# [17] = system: CHLA-32; assay: MTS GI50, Myc-dependent panel; type: cell-based
# Description: as §2, §1
# [18] = system: L-363; assay: MTS GI50, Myc-dependent panel; type: cell-based; conditions: Homo sapiens, L-363, 72 h
# Description: as §2, §1
# [19] = system: THP-1; assay: MTS GI50, Myc-dependent panel; type: cell-based; conditions: Homo sapiens, THP-1, 72 h
# Description: as §2, §1
# [20] = system: K-562; assay: MTS GI50, Myc-dependent panel; type: cell-based; conditions: Homo sapiens
# Description: as §2, §1
# [21] = system: KMS-27; assay: MTS GI50, Myc-dependent panel; type: cell-based; conditions: KMS-27, 72 h
# Description: as §2, §1
# [22] = system: CHLA-99; assay: MTS GI50, Myc-dependent panel; type: cell-based
# Description: as §2, §1
# [23] = system: RD-ES; assay: MTS GI50, Myc-dependent panel; type: cell-based; conditions: 72 h
# Description: as §2, §1
# [24] = system: SF-539 (CNS); assay: NCI-60 cytotoxicity assay; type: cell-based; conditions: Homo sapiens; SF-539 CNS; 48 h, sulforhodamine B; read-out: Comparative Cytotoxicity GI50, CNS SF-539
# Description: (§3) The antiproliferative activities of the indenoisquinoline compounds are determined in the NCI-60 cancer cell lines of the National Cancer Institute Developmental Therapeutics Program (NCI-DTP). […] Cancer cells are incubated with the test compounds at five concentrations ranging from 100 μM to 10 nM for 48 h. After the treated cancer cells are stained with sulforhodamine B dye, the percentage growth is plotted as a function of the common logarithm of the tested compound concentration. […] The approximate average of GI50 values across the entire panel of NCI-60 cancer cell lines for each compound is recorded as the MGM value.
# (§4) NCI-60 Cytotoxicity Assay. Compounds were submitted to the National Cancer Institute Developmental Therapeutic Program to determine their growth-inhibitory potentials in NCI-60 cell lines. All compounds satisfied the pre-screening proceeded into the 5-dose cell viability assay, in which cells were treated for 48 h at 5 dosages ranging from 100 μM to 10 nM.
# [25] = system: NCI-60 cancer cell lines; assay: NCI-60 cytotoxicity assay, MGM; type: cell-based; conditions: Homo sapiens; entire panel of NCI-60 cancer cell lines; read-out: MGM (approximate average of GI50 values across the NCI-60 panel)
# Description: as §3, §4
# [26] = system: HOP-62 (Lung); assay: NCI-60 cytotoxicity assay; type: cell-based, human; conditions: Homo sapiens; HOP-62 lung; 48 h, sulforhodamine B; read-out: Comparative Cytotoxicity GI50, Lung HOP-62
# Description: as §3, §4
# [27] = system: SN12C (Renal); assay: NCI-60 cytotoxicity assay; type: cell-based, human; conditions: Homo sapiens; SN12C renal; 48 h, sulforhodamine B; read-out: Comparative Cytotoxicity GI50, Renal SN12C
# Description: as §3, §4
# [28] = system: DU-145 (Prostate); assay: NCI-60 cytotoxicity assay; type: cell-based, human; conditions: Homo sapiens; DU-145 prostate; 48 h, sulforhodamine B; read-out: Comparative Cytotoxicity GI50, Prostate DU-145
# Description: as §3, §4
# [29] = system: MCF7 (Breast); assay: NCI-60 cytotoxicity assay; type: cell-based, human; conditions: Homo sapiens; MCF7 breast; 48 h, sulforhodamine B; read-out: Comparative Cytotoxicity GI50, Breast MCE7
# Description: as §3, §4
# [30] = system: OVCAR-3 (Ovarian); assay: NCI-60 cytotoxicity assay; type: cell-based, human; conditions: Homo sapiens; OVCAR-3 ovarian; 48 h, sulforhodamine B; read-out: Comparative Cytotoxicity GI50, Ovarian OVCAR-3
# Description: as §3, §4
# [31] = system: HCT-116 (Colon); assay: NCI-60 cytotoxicity assay; type: cell-based, human; conditions: Homo sapiens; HCT-116 colon; 48 h, sulforhodamine B; read-out: Comparative Cytotoxicity GI50, Colon HCT-116
# Description: as §3, §4
# [32] = system: UACC-62 (Melanoma); assay: NCI-60 cytotoxicity assay; type: cell-based, human; conditions: Homo sapiens; UACC-62 melanoma; 48 h, sulforhodamine B; read-out: Comparative Cytotoxicity GI50, Melanoma UACC-62
# Description: as §3, §4
structure (smiles),measurement,setting,value
COc1cc2c3c(n(CCCNCCO)c(=O)c2cc1OC)-c1cc2c(cc1C3=O)OCO2 [LMP517],IC50,[1],53 nM
same,Kd,[2],109 nM
same,GI50,[3],58 nM
same,GI50,[4],11 nM
same,GI50,"[5]; RS4-11, 72 h",7 nM
same,GI50,[6],137 nM
same,GI50,"[7]; Kasumi 1, 72 h",148 nM
same,GI50,[8],62 nM
same,GI50,"[9]; AMO1, 72 h",69 nM
same,GI50,"[10]; MCF7, 72 h",418 nM
same,GI50,[11],82 nM
same,GI50,[12],27 nM
same,GI50,[13]; 72 h,51 nM
same,GI50,[14],319 nM
same,GI50,[15],3 nM
same,GI50,[16],12 nM
same,GI50,[17]; 72 h,37 nM
same,GI50,[18],42 nM
same,GI50,[19],93 nM
same,GI50,"[20]; K562, 72 h",74 nM
same,GI50,[21],44 nM
same,GI50,[22]; 72 h,44 nM
same,GI50,[23],9 nM
"CC[C@@]1(O)C(=O)OCc2c1cc1n(c2=O)Cc2cc3ccccc3nc2-1 [CPT, Camptothecin]",GI50,[3]; read-out: GI50,8 nM
same,GI50,"[4]; CCRF-CRM, read-out: GI50",4 nM
same,GI50,"[5]; RS4;11, 72 h, read-out: GI50",6 nM
same,GI50,[6]; read-out: GI50,27 nM
same,GI50,"[7]; Kasumi-1, 72 h, read-out: GI50",85 nM
same,GI50,[8]; read-out: GI50,9 nM
same,GI50,"[9]; AMO1, AMO-1, 72 h, read-out: GI50",20 nM
same,GI50,"[10]; MCF7, MCF-7, 72 h, read-out: GI50",200 nM
same,GI50,[11]; read-out: GI50,14 nM
same,GI50,"[12]; ARD, read-out: GI50",11 nM
same,GI50,"[13]; TC-106, 72 h, read-out: GI50",11 nM
same,GI50,[14]; read-out: GI50,37 nM
same,GI50,[15]; read-out: GI50,< 2 nM
same,GI50,[16]; read-out: GI50,7 nM
same,GI50,"[17]; CHLA-32, 72 h, read-out: GI50",6 nM
same,GI50,[18]; read-out: GI50,10 nM
same,GI50,[19]; read-out: GI50,55 nM
same,GI50,"[20]; K562, K-562, 72 h, read-out: GI50",22 nM
same,GI50,[21]; read-out: GI50,13 nM
same,GI50,"[22]; CHLA-99, 72 h, read-out: GI50",4 nM
same,GI50,[23]; read-out: GI50,5 nM
COc1cc2c3c(n(CCCNCC4CC4)c(=O)c2cc1OC)-c1cc2c(cc1C3=O)OCO2 [A1],GI50,[24],760 nM
same,GI50,[25],1320 nM
same,GI50,[26],350 nM
same,GI50,[27],1370 nM
same,GI50,[28],760 nM
same,GI50,[29],95 nM
same,GI50,[30],1420 nM
same,GI50,[31],1140 nM
same,GI50,[32],2860 nM
COc1cnc2c(c1)C(=O)c1c-2n(CCCNCCO)c(=O)c2cc(OC)c(OC)cc12 [A12],GI50,[24],490 nM
same,GI50,[25],2090 nM
same,GI50,[26],350 nM
same,GI50,[27],3280 nM
same,GI50,[28],730 nM
same,GI50,[29],170 nM
same,GI50,[30],4520 nM
same,GI50,[31],1150 nM
same,GI50,[32],1170 nM
